From PMC5872125, “Fragment-Based Discovery of Inhibitors of the Bacterial DnaG-SSB Interaction” (Antibiotics, 2018)
Where “and” joins values, the source holds several entries; their conditions need not be identical. Identical values can stand only once.

Experiments:
[1] = target: T1, DnaGC (C-terminal helicase-binding domain of DnaG primase) (Escherichia coli, UniProt P0ABS5); assay: 15N–1H HSQC NMR titration (binding affinity); conditions: 15N–1H HSQC titration, change in chemical shift with incremental additions of ligand; roughly estimated
T1 construct: made in house
T1 sequence (P0ABS5 434-581): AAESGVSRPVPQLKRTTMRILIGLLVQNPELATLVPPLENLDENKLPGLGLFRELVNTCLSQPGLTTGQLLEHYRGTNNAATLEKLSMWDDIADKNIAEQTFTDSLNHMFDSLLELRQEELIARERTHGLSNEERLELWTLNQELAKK
Description: The final volume of each sample was 150 μL. The recording time was 30 min for each ^15N–^1H HSQC experiment. A standard pulse sequence was used for data acquisition. Spectra were recorded at 298 K with a Bruker Avance 600 MHz NMR spectrometer equipped with cryoprobe and auto-sample changer. […] The spectra were processed with TOPSPIN 3.1 and analyzed using CCPN [43]. Weighted CSP values were calculated as
Binding affinities were estimated by incremental titration of fragments into protein, with recording of a ^15N–^1H HSQC experiment at each concentration point. Compound solubilities were tested to determine the highest concentrations of ligands used in assays. Equilibrium dissociation constants from NMR titration data were derived using the “single site-specific binding with ligand depletion” model in GraphPad Prism v.6.0 (La Jolla, CA, USA).

DnaGC = target: T2, DnaGC (Escherichia coli, UniProt P0ABS5); assay: 1D 19F-NMR binding; conditions: compound 1 mM, 50 μM DnaGC (20-fold excess)
T2 construct: made in house
T2 sequence (P0ABS5 434-581): as above
Excerpt: The observed NMR peak shifts were consistent with the docked orientation. The negatively charged tetrazole is predicted to form favorable electrostatic and hydrogen bond interactions with the side chains of K447 and R452. The methyl groups of L446, M451, L455, L484 T515 and L519 form a hydrophobic pocket accommodating two aromatic rings of the compound. One of the fluorine atoms is about 3 Å from the amide group of G481 while the second at the para-position of the phenoxy group points out of the pocket toward K518. In the docked conformation, these fluorine atoms are involved in hydrogen bond formation with these two residues (Figure 4). To test the docked orientation of 5, 1D ^19F-NMR was carried out using a 20-fold excess of compound over protein.
(§1) 1D ^19F-NMR spectra were recorded on a Bruker Avance III 400 MHz NMR spectrometer (Bruker, Karlsruhe, Germany) equipped with the two-channel BBO probe with z-gradient at 300 K. All ^19F-NMR spectra were recorded with 256 scans for fragment and complex samples sequentially. Fragments dissolved in ^2H6-DMSO were diluted in HSQC buffer to give final fragment and protein concentrations of 1 mM and 50 μM, respectively.

E. coli χ = E. coli χ (Escherichia coli, UniProt P28905); assay: 1D 19F-NMR binding; conditions: in the presence of E. coli χ
Chain of E. coli χ (P28905 whole entry, the tested form may be a part): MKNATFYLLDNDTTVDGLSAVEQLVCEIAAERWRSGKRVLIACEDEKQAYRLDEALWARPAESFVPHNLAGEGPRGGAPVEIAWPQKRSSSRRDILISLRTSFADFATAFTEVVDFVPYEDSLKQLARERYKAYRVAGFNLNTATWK
Description: The fragments identified here and the first generation of optimized leads for DnaGC were tested against other SSB-Ct binding partners including E. coli PriA, E. coli RNAse HI, and the χ subunit of E. coli and Acinetobacter baumannii DNA polymerase III. STD-NMR was used to assess binding.
as §1

Row | SMILES | Kd [1] | binding by 1D 19F-NMR (DnaGC) | binding by 1D 19F-NMR (E. coli χ)
1 | Fc1ccc(Oc2cccc(F)c2-c2nnn[nH]2)cc1 [Compound 5, 5-[2-fluoro-6-(4-fluorphenoxy)phenyl]tetrazol-1-ide] | 1300 µM and ~1300 µM | confirming binding | 
2 | c1ccc(Oc2cccc(-c3nn[nH]n3)c2)cc1 [Compound 6] | 1200 µM and ~1200 µM |  | 
3 | O=C(O)CN1C(=O)c2cccc3cccc1c23 [Fragment 1] | ~1100 µM |  | 
4 | O=C(O)CSc1c[nH]c2ccccc12 [Fragment 2] | ~3100 µM |  | 
5 | O=C(O)CCSc1ccccc1 [Fragment 3] | ~2800 µM |  | 
6 | Fc1ccc(-c2nnn[nH]2)cc1 [Fragment 4] | ~3200 µM |  | demonstrated binding
